From patent US9295671B2, “Benzenesulfonamide derivatives of quinoxaline, pharmaceutical compositions thereof, and their use in methods for treating cancer” (NEUPHARMA, INC., priority 2011, dated 2016)

Assays:
BRAF [1] = molecular target: T1, BRAF (Homo sapiens, UniProt P15056); assay: Z′-LYTE kinase assay, BRAF (Invitrogen); type: biochemical; conditions: Z′-LYTE method
T1 construct: purchased Invitrogen
Method: (§1) Inhibitory activities of compounds against BRAF or BRAF V600E were measured by Invitrogen using Z′-LYTE® Method as briefly described in the following.
(§2) 4× Test compounds are dissolved in 1% DMSO. […] ATP solutions are diluted to a 4×ATP working concentration in Kinase Buffer (50 mM HEPES pH 7.5, 0.01% BRIJ-35, 10 mM MgCl2, 1 mM EGTA).
(§3) Reaction starts by 30-second shaking of mixture consisting of 2.5 μL4× test compound, […] and 2.5 μL 4×ATP Solution on Bar-coded Corning, low volume NBS, black 384-well plate (Corning Cat. #3676). Then the mixture is incubated for 60-minute at room temperature for the kinase reaction, followed by addition of 5 μL of a 1:1024 dilution of development reagent A and 30-second plate shake. The mixture is then incubated for another 60-minute at room temperature for development reaction. Finally fluorescence is read by plate reader.

BRAF V600E [2] = molecular target: T2, BRAF V600E (Homo sapiens, UniProt P15056, V600E); assay: Z′-LYTE kinase assay, BRAF V600E (Invitrogen); type: biochemical; conditions: Z′-LYTE method
T2 construct: purchased Invitrogen
Method: as §1, §2, §3

BRAF [3] = molecular target: T1, BRAF; assay: LanthaScreen kinase assay, BRAF; type: biochemical; conditions: ATP 1 μM
Method: (§4) The inhibitory activities of compounds against BRAF or BRAF V600E protein were measured using Invitrogne's LanthaScreen™ kinase assay which is based on fluorescein-labeled MAP2K1 as a substrate. The assay procedure is described as follows.
(§5) The scale utilized in Table 3 is as follows: ++++ less than 50 nM; +++ between 50 and 100 nM; ++ between 100 nM and 1 μM; and + greater than 1 μM.

BRAF V600E [4] = molecular target: T2, BRAF V600E; assay: LanthaScreen kinase assay, BRAF V600E; type: biochemical; conditions: ATP 10 μM
Method: as §4, §5

[5] = test system: A375 (human melanoma cell, BRAF V600E Mutant); assay: Inhibition of cancer cell growth, MTT or MTS assay, A375; type: cell-based; conditions: A-375, 72 h, highest concentration 10 μM (Table 5)
Method: (§6) A375 (human melanoma cell, BRAF V600E Mutant), CHL-1 (human melanoma cell, BRAF wild type), SK-MEL-28 (human melanoma cell, BRAF V600E Mutant) and SK-MEL-31(human melanoma cell, Braf WT Mutant) were purchased from ATCC (American Type Culture Collection, Manassas, Va.). All cell lines were maintained in RPMI 1640 (Hyclone) or DMEM (Hyclone) supplemented with 10% fetal bovine serum (FBS, Hyclone), glutamine (2 mM, Hyclone), and antibiotics (penicillin 100 U/mL and streptomycin 50 μg/mL) at 37° C. in a humidified atmosphere of 5% CO2 in air.
(§7) To test IC50 of inhibition of individual compounds against each cell line, A375, SK-MEL-28and SK-MEL-31 cells were first plated in 96-well plates at densities of 3000 cells/well, and CHL-1 2500 cells/well. Cells were then incubated to allow cells to adhere and grow for 24 h. Cells were then treated with a series of concentrations of compounds for 72 h. The highest concentration of compounds was 10 μM for A375 and SK-MEL-28 cells and 100 μM for CHL-1 and SK-MEL-31 cells. Cells were then removed from the incubator and medium was removed by inverting and tapping the plates. 100 μL of MTT (0.5 mg/ml) or 10 μL or MTS was added to each well followed by an incubated at 37° C. for 4 h. Then MTT was removed and 200 μL of DMSO was added to each well, followed by reading the ODs at 570 nm after a 5 second shaking cycle in a 96-well spectrophotometer. For MTS method, MTS was not removed, and the incubated solutions were directly put in a 96-well spectrophotometer for the reading of the ODs at 492 nm.
(§8) IC50 was calculated by plotting the concentration of compound vs the percentage of inhibition in treated wells using GraphPad Prism 5. […] The scale utilized in Table 5 is as follows: +++ less than 500 nM; ++ between 500 nM and 1 μM; and + greater than 1 μM.

[6] = test system: SK-MEL-28 (human melanoma cell, BRAF V600E Mutant); assay: Inhibition of cancer cell growth, MTT or MTS assay, SK-MEL-28; type: cell-based; conditions: 72 h, highest concentration 10 μM
Method: as §6, §7, §8

[7] = test system: CHL-1 (human melanoma cell, BRAF wild type); assay: Inhibition of cancer cell growth, MTT or MTS assay, CHL-1; type: cell-based; conditions: 72 h, highest concentration 100 μM
Method: as §6, §7, §8

[8] = test system: SK-MEL-31 (human melanoma cell, Braf WT Mutant); assay: Inhibition of cancer cell growth, MTT or MTS assay, SK-MEL-31; type: cell-based; conditions: 72 h, highest concentration 100 μM
Method: as §6, §7, §8

A375 tumor xenograft = assay: Inhibition of tumor growth in A375 tumor xenograft model; type: in vivo, BALB/c female nude mice; conditions: nude mice, Compound 12.5 mg/kg b.i.d. × 20 i.g., Cisplatin 6 mg/kg q7d × 3 i.p.
Method: Cells were implanted in BALB/c female nude mice and grown as tumor xenografts. When tumors achieved 120-200 mm^3, mice were assigned into treatment and control groups using randomized block design based upon their tumor volumes. Each group contained 6 tumor-bearing mice. Tumors were measured twice weekly in two dimensions using a caliper, and the tumor volume was calculated from two-dimensional measurements using the equation V=0.5×a×b^2 where a and b are the long and short diameters of the tumor, respectively. Relative tumor volume (RTV) was defined as TVt/TVi, the ratio of the volume on a given day (TVt) and the volume at the start of treatment (TVi). Relative tumor growth rate (T/C) was defined as RTVT/RTVC, the ratio of relative tumor volume of treatment group (RTVT) and relative tumor volume of control group (RTVC) on a given day. Inhibition of tumor growth in a A375 tumor xenograft model is shown below in Table 6 for a compound of Table 1.

T1 sequence (P15056 whole entry): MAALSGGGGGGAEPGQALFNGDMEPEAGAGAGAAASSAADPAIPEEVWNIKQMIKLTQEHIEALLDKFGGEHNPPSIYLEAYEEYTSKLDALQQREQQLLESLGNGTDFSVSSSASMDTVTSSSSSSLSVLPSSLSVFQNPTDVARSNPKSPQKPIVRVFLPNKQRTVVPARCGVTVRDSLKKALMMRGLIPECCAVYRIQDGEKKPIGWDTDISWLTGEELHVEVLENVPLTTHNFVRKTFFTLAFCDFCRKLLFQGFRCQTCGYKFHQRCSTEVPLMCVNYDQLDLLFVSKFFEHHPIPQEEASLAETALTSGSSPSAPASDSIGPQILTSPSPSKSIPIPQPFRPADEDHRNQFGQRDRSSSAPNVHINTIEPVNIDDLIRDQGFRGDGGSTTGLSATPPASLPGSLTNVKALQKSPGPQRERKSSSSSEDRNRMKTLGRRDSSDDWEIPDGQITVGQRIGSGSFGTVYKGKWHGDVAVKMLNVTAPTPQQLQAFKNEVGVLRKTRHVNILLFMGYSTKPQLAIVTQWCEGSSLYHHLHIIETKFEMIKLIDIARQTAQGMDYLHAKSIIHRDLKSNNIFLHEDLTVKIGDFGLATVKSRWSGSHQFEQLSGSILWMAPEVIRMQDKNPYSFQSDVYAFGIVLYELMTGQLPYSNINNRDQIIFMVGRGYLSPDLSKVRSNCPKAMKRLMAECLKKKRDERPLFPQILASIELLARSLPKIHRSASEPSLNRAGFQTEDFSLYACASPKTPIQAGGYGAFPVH
T2 sequence (P15056 whole entry V600E): as the sequence (P15056 whole entry) above, with V600E counted along it

| Compound | inhibition at 1 µM (BRAF [1]) [%] | inhibition at 1 µM (BRAF V600E [2]) [%] | IC50 (BRAF [3]) [nM] | IC50 (BRAF V600E [4]) [nM] | IC50 [5] [nM] | IC50 [6] [nM] | IC50 CHL-1 [7] | IC50 SK-MEL-31 [8] | Tumor Volume Post-treatment (A375 tumor xenograft) [mm^3] | Tumor Volume Pre-treatment (A375 tumor xenograft) [mm^3] | T/C (relative tumor growth rate, RTVT/RTVC) (A375 tumor xenograft; *p < 0.05, **p < 0.01) [%*] |
| --- | --- | --- | --- | --- | --- | --- | --- | --- | --- | --- | --- |
| CCCS(=O)(=O)Nc1cc(F)c(F)c(C(=O)c2ccc3ncc(N4CCOCC4)nc3c2)c1F [Compound C09, N-(2,4,5-trifluoro-3-(3-morpholinoquinoxaline-6-carbonyl)phenyl)propane-1-sulfonamide] | > 89 | > 89 | 50 to 100 | < 50 | < 500 | < 500 | No inhibition | No inhibition | – | – | – |
| CCCS(=O)(=O)Nc1cc(F)c(F)c(C(=O)c2ccc3nccnc3c2)c1F [Compound C04, N-(2,4,5-trifluoro-3-(quinoxaline-6-carbonyl)phenyl)propane-1-sulfonamide] | > 89 | > 89 | 50 to 100 | < 50 | < 500 | < 500 | No inhibition | No inhibition | – | – | – |
| N.N.[Cl][Pt][Cl] [Cisplatin] | – | – | – | – | – | – | – | – | 647 | 136 | 44.4 |
